The values that follow come from patent publication US7141553B2, “A3AR agonists for the treatment of inflammatory arthritis” (Can-Fite Biopharma Ltd. Israel, priority 2002, dated 2006).

The structures appear in SMILES notation.

For experiment [1], the system named is collagen-induced arthritis. Put plainly: Collagen-induced-arthritis (CIA) model in mice. In kind it is in vivo, mouse. Here is the method: Male DBA mice, aged 10 weeks, were injected SC with 100 μl of Type II collagen 200 μg in complete Freund's adjuvant (CFA). On day 21 a booster injection of the same emulsion was administered. Mice were inspected daily for symptoms of clinical arthritis.
The inflammatory intensity, presented as joint swelling, was measured by Caliper (Mitutoyo Co., Tokyo, Japan). Histopathological sections of these decalcified whole joints were stained with hematoxylin-eosin. Slides were screened for the following arthritic characteristics: inflammatory cell infiltration, synovial cell lining hyperplasia and pannus formation. The histological assessment of the knees inflammation intensity was divided to four parameters: • 1. Lymphatic follicle like formation—graded 0–4 • 2. Inflammatory cells infiltration—graded 0–4 • 3. Synovial cells hyperplasia—graded 0–4 • 4. Pannus formation—graded 0–4 The arithmetic sum of these four parameters above all together designated-“Total Arthritic Score” (Goldenberg et al, J. Rheumatol. 1: 5–11, 1983). The white blood cell (WBC) count and the serum levels of the pro-inflammatory cytokine TMF-α served as humoral markers of the immune system activation. Tumor necrosis factor-α sera level was determined, in accordance with the manufacturer's guidelines, by ELISA kit “Quantikine M” (R&D Systems, Minneapolis, Minn., USA). 4. Statistical Analysis
Male DBA mice were treated to produce collagen-induced-arthritis as described above. Each group contained 10 animals and each experiment was conducted at least three times.
IB-MECA (10 μg/kg) was orally administered by gavage, twice daily starting at onset of clinical arthritis. The […] control received vehicle only. The inflammatory intensity in the CIA model was determined in accordance with the increase in the mice hind paw's diameter, measured by caliper (Mitotoyo, Tokyo, Japan). The mean score in each experimental group was designated as the “Clinical Score”. […]
The assessment of all pathologic findings were performed blind (by L. R-W and M. H) using semi-quantitative grading scales of 0 to 4 for the following parameters: […]

For experiment [2], the system named is patients with active rheumatoid arthritis. Put plainly: Clinical trial in humans, effect on rheumatoid arthritis. In kind it is in vivo, human. Particulars: 0.1, 1 or 4 mg twice daily orally, up to 12 weeks; in at least half of 15 patients. The source says:
Patients with active rheumatoid arthritis were chosen for the study. All chosen patients met the following criteria:
Rheumatoid arthritis patients that were included in the study, met the following inclusion criteria: • 1. Males and females 18 years of age or older • 2. Functional Class I, II, or III by the criteria of the American College of Rheumatology • 3. Active RA, as indicated by the presence of (a) ≧6 swollen joints; AND (b) ≧29 tender joints; AND at least one of he following: (c) Westergren ESR of ≧28 mm/hour; OR (d) CRP level of >2.0 mg/dL; OR (e) morning stiffness for >45 minutes • 4. History of unsuccessful treatment (documented intolerance or lack of efficacy as determined by the Investigator) with at least 1, but no more than 4, of the following disease modifying anti-rheumatic drugs (DMARDs): methotrexate, hydroxychloroquine, sulfasalazine, oral or injectable gold, azathioprine, leflunomide, minocycline, and penicillamine, alone or in combination Protocol
Patients included in the study were subjected to a 1 month washout period in which they ceased to take any DMARD. Following this one months washout the patients were administered twice daily with either with 0.1 mg, 1 mg of 4 mg of IB-MECA in a double-blind fashion. […]
Disease activity was assessed using standard criteria as laid down by the American College of Rheumatology (ACR).

In experiment [3] the test system is collagen-induced arthritis. As to conditions: 0.5 mg/kg a day; cited from earlier work.

As for `CNC(=O)[C@H]1O[C@@H](n2cnc3c(NCc4cccc(I)c4)ncnc32)[C@H](O)[C@@H]1O` [IB-MECA, N6-(3-iodobenzyl)-adenosine-5′-N-methyl-uronamide], in experiment [1] (10 μg/kg orally, day 21 difference significant p<0.02), the “intensity of the arthritis” value is “reduced throughout the experimental period”. Also, the “histology sections of joints” value in experiment [1] (10 μg/kg, FIG. 7C) is “minimal inflammatory changes”. Further, the histology score in experiment [1] (10 μg/kg, p<0.01 vs control, FIG. 8) stood at 1.0±0.6. In addition, the “disease symptoms (ACR criteria)” value in experiment [2] is reported as “significant improvement in disease symptoms”. In experiment [3], the “severity of joint inflammation” value is recorded as “reduced the severity of joint inflammation”.
